Key:
Assay in all cases: relative viability (nuclei count vs DMSO), 5 days (fraction); higher = more cells survive
Dabrafenib + Decitabine = compound: CC(C)(C)c1nc(-c2cccc(NS(=O)(=O)c3c(F)cccc3F)c2F)c(-c2ccnc(N)n2)s1 [Dabrafenib] + Nc1ncn([C@H]2C[C@H](O)[C@@H](CO)O2)c(=O)n1 [Decitabine] (partner 2 µM)
Outline: (§1)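 Nuclei were stained with Hoechst during a one-step fixation (final 0.05% Triton X-100, 1% formaldehyde, 1 ug/ml Hoechst) carried out 5 days after dosing, then counted on 4× images. The cells, lung cancer lines in 1536-well plates, had been dosed by pin tool the day after seeding with one drug alone or a fixed anchor-drug dose plus five library-drug doses (not always all listed) in √10 steps. Relative viability is the nuclei count in treated wells divided by that in vehicle wells, and each value is the median of duplicate plates.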

Dabrafenib + Phenformin = compound: CC(C)(C)c1nc(-c2cccc(NS(=O)(=O)c3c(F)cccc3F)c2F)c(-c2ccnc(N)n2)s1 [Dabrafenib] + N=C(N)NC(=N)NCCc1ccccc1 [Phenformin] (partner 250 µM)
Outline: as §1

Dabrafenib + Trametinib = compound: CC(C)(C)c1nc(-c2cccc(NS(=O)(=O)c3c(F)cccc3F)c2F)c(-c2ccnc(N)n2)s1 [Dabrafenib] + CC(=O)Nc1cccc(-n2c(=O)n(C3CC3)c(=O)c3c(Nc4ccc(I)cc4F)n(C)c(=O)c(C)c32)c1 [Trametinib] (partner 0.02 µM)
Outline: as §1

VX-702 + Navitoclax = compound: NC(=O)c1ccc(N(C(N)=O)c2c(F)cccc2F)nc1-c1ccc(F)cc1F [VX-702] + CC1(C)CCC(c2ccc(Cl)cc2)=C(CN2CCN(c3ccc(C(=O)NS(=O)(=O)c4ccc(N[C@H](CCN5CCOCC5)CSc5ccccc5)c(S(=O)(=O)C(F)(F)F)c4)cc3)CC2)C1 [Navitoclax] (partner 0.5 µM)
Outline: as §1

For LCLC-103H, the relative viability (Dabrafenib + Decitabine; first compound 0.003 µM) was 0.724, the relative viability (Dabrafenib + Decitabine; first compound 0.009487 µM) was 0.776 and the relative viability (Dabrafenib + Decitabine; first compound 0.03 µM) was 0.696. The relative viability (Dabrafenib + Decitabine; first compound 0.09487 µM) was 0.658, the relative viability (Dabrafenib + Decitabine; first compound 0.3 µM) was 0.745 and the relative viability (Dabrafenib + Phenformin; first compound 0.003 µM) was 0.304. The relative viability (Dabrafenib + Phenformin; first compound 0.009487 µM) was 0.35, the relative viability (Dabrafenib + Phenformin; first compound 0.03 µM) was 0.328 and the relative viability (Dabrafenib + Phenformin; first compound 0.09487 µM) was 0.345. For the same cell line, the relative viability (Dabrafenib + Phenformin; first compound 0.3 µM) was 0.331, the relative viability (Dabrafenib + Trametinib; first compound 0.003 µM) was 0.635 and the relative viability (Dabrafenib + Trametinib; first compound 0.009487 µM) was 0.707. It also gave a relative viability (Dabrafenib + Trametinib; first compound 0.03 µM) of 0.614, a relative viability (Dabrafenib + Trametinib; first compound 0.09487 µM) of 0.684 and a relative viability (Dabrafenib + Trametinib; first compound 0.3 µM) of 0.701.
Cell Line LK-2 has a relative viability (Dabrafenib + Decitabine; first compound 0.003 µM) of 0.225, a relative viability (Dabrafenib + Decitabine; first compound 0.009487 µM) of 0.287 and a relative viability (Dabrafenib + Decitabine; first compound 0.09487 µM) of 0.326. For the same cell line, the relative viability (Dabrafenib + Decitabine; first compound 0.3 µM) was 0.22, the relative viability (Dabrafenib + Phenformin; first compound 0.003 µM) was 0.38 and the relative viability (Dabrafenib + Phenformin; first compound 0.009487 µM) was 0.573. For the same cell line, the relative viability (Dabrafenib + Phenformin; first compound 0.09487 µM) was 0.475, the relative viability (Dabrafenib + Phenformin; first compound 0.3 µM) was 0.603 and the relative viability (Dabrafenib + Trametinib; first compound 0.003 µM) was 0.692. It also gave a relative viability (Dabrafenib + Trametinib; first compound 0.009487 µM) of 0.925, a relative viability (Dabrafenib + Trametinib; first compound 0.03 µM) of 0.473 and a relative viability (Dabrafenib + Trametinib; first compound 0.09487 µM) of 0.774. For the same cell line, the relative viability (Dabrafenib + Trametinib; first compound 0.3 µM) was 0.934, the relative viability (VX-702 + Navitoclax; first compound 0.02 µM) was 0.834 and the relative viability (VX-702 + Navitoclax; first compound 0.2 µM) was 0.811. The relative viability (VX-702 + Navitoclax; first compound 0.6325 µM) was 0.64 and the relative viability (VX-702 + Navitoclax; first compound 2 µM) was 0.781.
NCI-H358 was tested, and the relative viability (Dabrafenib + Decitabine; first compound 0.003 µM) was 0.198, the relative viability (Dabrafenib + Decitabine; first compound 0.009487 µM) was 0.198 and the relative viability (Dabrafenib + Decitabine; first compound 0.03 µM) was 0.186. For the same cell line, the relative viability (Dabrafenib + Decitabine; first compound 0.09487 µM) was 0.195, the relative viability (Dabrafenib + Decitabine; first compound 0.3 µM) was 0.152 and the relative viability (Dabrafenib + Phenformin; first compound 0.003 µM) was 0.193. For the same cell line, the relative viability (Dabrafenib + Phenformin; first compound 0.009487 µM) was 0.457, the relative viability (Dabrafenib + Phenformin; first compound 0.03 µM) was 0.467 and the relative viability (Dabrafenib + Phenformin; first compound 0.09487 µM) was 0.344. The relative viability (Dabrafenib + Phenformin; first compound 0.3 µM) was 0.419, the relative viability (Dabrafenib + Trametinib; first compound 0.003 µM) was 0.109 and the relative viability (Dabrafenib + Trametinib; first compound 0.009487 µM) was 0.116. For the same cell line, the relative viability (Dabrafenib + Trametinib; first compound 0.03 µM) was 0.159, the relative viability (Dabrafenib + Trametinib; first compound 0.09487 µM) was 0.162 and the relative viability (Dabrafenib + Trametinib; first compound 0.3 µM) was 0.178.
NCI-H522 was tested, and the relative viability (Dabrafenib + Decitabine; first compound 0.009487 µM) was 0.675, the relative viability (Dabrafenib + Decitabine; first compound 0.03 µM) was 0.64 and the relative viability (Dabrafenib + Decitabine; first compound 0.09487 µM) was 0.755. The relative viability (Dabrafenib + Decitabine; first compound 0.3 µM) was 0.666, the relative viability (Dabrafenib + Phenformin; first compound 0.009487 µM) was 0.654 and the relative viability (Dabrafenib + Phenformin; first compound 0.03 µM) was 0.616. For the same cell line, the relative viability (Dabrafenib + Phenformin; first compound 0.09487 µM) was 0.628, the relative viability (Dabrafenib + Phenformin; first compound 0.3 µM) was 0.634 and the relative viability (Dabrafenib + Trametinib; first compound 0.009487 µM) was 0.829. It also gave a relative viability (Dabrafenib + Trametinib; first compound 0.03 µM) of 0.753, a relative viability (Dabrafenib + Trametinib; first compound 0.09487 µM) of 0.682 and a relative viability (Dabrafenib + Trametinib; first compound 0.3 µM) of 0.792.
NCI-H650 was tested, and the relative viability (Dabrafenib + Decitabine; first compound 0.009487 µM) was 0.324, the relative viability (Dabrafenib + Decitabine; first compound 0.03 µM) was 0.33 and the relative viability (Dabrafenib + Decitabine; first compound 0.09487 µM) was 0.303. For the same cell line, the relative viability (Dabrafenib + Decitabine; first compound 0.3 µM) was 0.251, the relative viability (Dabrafenib + Phenformin; first compound 0.009487 µM) was 0.475 and the relative viability (Dabrafenib + Phenformin; first compound 0.03 µM) was 0.393. For the same cell line, the relative viability (Dabrafenib + Phenformin; first compound 0.09487 µM) was 0.262, the relative viability (Dabrafenib + Phenformin; first compound 0.3 µM) was 0.35 and the relative viability (Dabrafenib + Trametinib; first compound 0.009487 µM) was 0.913. For the same cell line, the relative viability (Dabrafenib + Trametinib; first compound 0.03 µM) was 1.01, the relative viability (Dabrafenib + Trametinib; first compound 0.09487 µM) was 0.942 and the relative viability (Dabrafenib + Trametinib; first compound 0.3 µM) was 1.04.
For NCI-H661, the relative viability (Dabrafenib + Decitabine; first compound 0.003 µM) was 0.656, the relative viability (Dabrafenib + Decitabine; first compound 0.009487 µM) was 0.57 and the relative viability (Dabrafenib + Decitabine; first compound 0.03 µM) was 0.575. The relative viability (Dabrafenib + Decitabine; first compound 0.09487 µM) was 0.573, the relative viability (Dabrafenib + Decitabine; first compound 0.3 µM) was 0.514 and the relative viability (Dabrafenib + Phenformin; first compound 0.003 µM) was 0.256. The relative viability (Dabrafenib + Phenformin; first compound 0.009487 µM) was 0.277, the relative viability (Dabrafenib + Phenformin; first compound 0.03 µM) was 0.268 and the relative viability (Dabrafenib + Phenformin; first compound 0.09487 µM) was 0.323. It also gave a relative viability (Dabrafenib + Phenformin; first compound 0.3 µM) of 0.306, a relative viability (Dabrafenib + Trametinib; first compound 0.003 µM) of 0.562 and a relative viability (Dabrafenib + Trametinib; first compound 0.009487 µM) of 0.527. The relative viability (Dabrafenib + Trametinib; first compound 0.03 µM) was 0.59, the relative viability (Dabrafenib + Trametinib; first compound 0.09487 µM) was 0.556 and the relative viability (Dabrafenib + Trametinib; first compound 0.3 µM) was 0.568.
With NCI-H1299 the relative viability (VX-702 + Navitoclax; first compound 0.02 µM) was 1.1, the relative viability (VX-702 + Navitoclax; first compound 0.2 µM) was 1.08 and the relative viability (VX-702 + Navitoclax; first compound 0.6325 µM) was 1.07. The relative viability (VX-702 + Navitoclax; first compound 2 µM) was 1.15.
In the case of NCI-H1563, the relative viability (Dabrafenib + Phenformin; first compound 0.003 µM) is reported as 0.622, the relative viability (Dabrafenib + Phenformin; first compound 0.009487 µM) is reported as 0.667 and the relative viability (Dabrafenib + Phenformin; first compound 0.03 µM) is reported as 0.653. The relative viability (Dabrafenib + Phenformin; first compound 0.09487 µM) was 0.752 and the relative viability (Dabrafenib + Phenformin; first compound 0.3 µM) was 0.748.
In the case of NCI-H1623, the relative viability (Dabrafenib + Phenformin; first compound 0.009487 µM) is reported as 0.611, the relative viability (Dabrafenib + Phenformin; first compound 0.03 µM) is reported as 0.572 and the relative viability (Dabrafenib + Phenformin; first compound 0.09487 µM) is reported as 0.602. For the same cell line, the relative viability (Dabrafenib + Phenformin; first compound 0.3 µM) was 0.682.
In the case of NCI-H1648, the relative viability (Dabrafenib + Decitabine; first compound 0.003 µM) is reported as 0.599, the relative viability (Dabrafenib + Decitabine; first compound 0.009487 µM) is reported as 0.463 and the relative viability (Dabrafenib + Decitabine; first compound 0.09487 µM) is reported as 0.372. The relative viability (Dabrafenib + Decitabine; first compound 0.3 µM) was 0.495, the relative viability (Dabrafenib + Trametinib; first compound 0.003 µM) was 0.457 and the relative viability (Dabrafenib + Trametinib; first compound 0.009487 µM) was 0.524. It also gave a relative viability (Dabrafenib + Trametinib; first compound 0.09487 µM) of 0.425 and a relative viability (Dabrafenib + Trametinib; first compound 0.3 µM) of 0.585.
NCI-H1703 was tested, and the relative viability (VX-702 + Navitoclax; first compound 0.02 µM) was 1.01, the relative viability (VX-702 + Navitoclax; first compound 0.2 µM) was 1.35 and the relative viability (VX-702 + Navitoclax; first compound 0.6325 µM) was 1.08. The relative viability (VX-702 + Navitoclax; first compound 2 µM) was 1.47.
With NCI-H2228 the relative viability (Dabrafenib + Phenformin; first compound 0.009487 µM) was 0.326, the relative viability (Dabrafenib + Phenformin; first compound 0.03 µM) was 0.289 and the relative viability (Dabrafenib + Phenformin; first compound 0.09487 µM) was 0.37. For the same cell line, the relative viability (Dabrafenib + Phenformin; first compound 0.3 µM) was 0.258, the relative viability (Dabrafenib + Trametinib; first compound 0.003 µM) was 0.269 and the relative viability (Dabrafenib + Trametinib; first compound 0.009487 µM) was 0.45. The relative viability (Dabrafenib + Trametinib; first compound 0.03 µM) was 0.497, the relative viability (Dabrafenib + Trametinib; first compound 0.09487 µM) was 0.597 and the relative viability (Dabrafenib + Trametinib; first compound 0.3 µM) was 0.658. The relative viability (VX-702 + Navitoclax; first compound 0.02 µM) was 1.29, the relative viability (VX-702 + Navitoclax; first compound 0.2 µM) was 0.973 and the relative viability (VX-702 + Navitoclax; first compound 0.6325 µM) was 0.886. It also gave a relative viability (VX-702 + Navitoclax; first compound 2 µM) of 0.952.
Cell Line NCI-H2342 has a relative viability (Dabrafenib + Decitabine; first compound 0.003 µM) of 0.748, a relative viability (Dabrafenib + Decitabine; first compound 0.009487 µM) of 0.723 and a relative viability (Dabrafenib + Decitabine; first compound 0.03 µM) of 0.657. The relative viability (Dabrafenib + Decitabine; first compound 0.09487 µM) was 0.781, the relative viability (Dabrafenib + Decitabine; first compound 0.3 µM) was 0.774 and the relative viability (Dabrafenib + Phenformin; first compound 0.003 µM) was 0.444. The relative viability (Dabrafenib + Phenformin; first compound 0.009487 µM) was 0.599, the relative viability (Dabrafenib + Phenformin; first compound 0.03 µM) was 0.546 and the relative viability (Dabrafenib + Phenformin; first compound 0.09487 µM) was 0.653. It also gave a relative viability (Dabrafenib + Phenformin; first compound 0.3 µM) of 0.612, a relative viability (Dabrafenib + Trametinib; first compound 0.003 µM) of 0.808 and a relative viability (Dabrafenib + Trametinib; first compound 0.009487 µM) of 0.79. For the same cell line, the relative viability (Dabrafenib + Trametinib; first compound 0.03 µM) was 0.76, the relative viability (Dabrafenib + Trametinib; first compound 0.09487 µM) was 0.866 and the relative viability (Dabrafenib + Trametinib; first compound 0.3 µM) was 0.927.

From the supplement of paper PMC10307832
